Reference: PubChem BioAssay (NCI)
Values joined by “and” are separate entries in the source; they are usually repeats but may differ in a detail not shown here. Identical values can stand only once.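 Tested at 5 concentrations; 48 h exposure; 96-well plates; endpoints linearly interpolated, else capped at highest concentration. GI50 marks 50% less growth. The concentration for full growth arrest is given as TGI.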

What was measured:
Test in all cases: growth of human tumour cells (NCI), 48 h
LOX IMVI melanoma = test system: LOX IMVI melanoma
MOLT-4 leukemia = test system: MOLT-4 leukemia
SF-268 CNS = test system: SF-268 CNS
KM12 colon = test system: KM12 colon
SN12C renal = test system: SN12C renal
HOP-92 NSCLC = test system: HOP-92 NSCLC
UACC-62 melanoma = test system: UACC-62 melanoma
SNB-75 CNS = test system: SNB-75 CNS
NCI/ADR-RES ovarian = test system: NCI/ADR-RES ovarian
SK-MEL-5 melanoma = test system: SK-MEL-5 melanoma
UACC-257 melanoma = test system: UACC-257 melanoma
M14 melanoma = test system: M14 melanoma
TK-10 renal = test system: TK-10 renal

`c1ccc(C(c2ccccc2)[P+](c2ccccc2)(c2ccccc2)c2ccccc2)cc1` gave a TGI (LOX IMVI melanoma) of 1.52 µM, a TGI (MOLT-4 leukemia) of 4.06 µM and a TGI (SF-268 CNS) of 15.3 µM. For the same compound, the TGI (KM12 colon) was 2.7 µM, the TGI (SN12C renal) was 11.7 µM and the TGI (HOP-92 NSCLC) was 2.79 µM. The TGI (UACC-62 melanoma) was 3.56 µM, the TGI (SNB-75 CNS) was 5.17 µM and the TGI (NCI/ADR-RES ovarian) was over 100 µM. For the same compound, the TGI (SK-MEL-5 melanoma) was 1.15 µM and the TGI (UACC-257 melanoma) was 3.17 µM.

`C=CCOC1OC(CS(=O)(=O)O)C(O)C(O)C1O` (stereo not drawn) gave a TGI (M14 melanoma) of over 100 µM, a TGI (LOX IMVI melanoma) of over 100 µM and a TGI (MOLT-4 leukemia) of over 100 µM. It also gave a TGI (TK-10 renal) of over 100 µM, a TGI (KM12 colon) of over 100 µM and a TGI (SN12C renal) of over 100 µM. The TGI (HOP-92 NSCLC) was over 100 µM, the TGI (UACC-62 melanoma) was over 100 µM and the TGI (SNB-75 CNS) was over 100 µM. For the same compound, the TGI (NCI/ADR-RES ovarian) was over 100 µM, the TGI (SK-MEL-5 melanoma) was over 100 µM and the TGI (UACC-257 melanoma) was over 100 µM.

Compound `O=C(O)CSCC(=O)O` has a TGI (M14 melanoma) of over 100 µM, a TGI (LOX IMVI melanoma) of over 100 µM and a TGI (MOLT-4 leukemia) of over 100 µM. For the same compound, the TGI (SF-268 CNS) was over 100 µM, the TGI (TK-10 renal) was over 100 µM and the TGI (KM12 colon) was over 100 µM. It also gave a TGI (SN12C renal) of over 100 µM, a TGI (HOP-92 NSCLC) of over 100 µM and a TGI (UACC-62 melanoma) of over 100 µM. The TGI (SNB-75 CNS) was over 100 µM, the TGI (NCI/ADR-RES ovarian) was over 100 µM and the TGI (SK-MEL-5 melanoma) was over 100 µM. It also gave a TGI (UACC-257 melanoma) of over 100 µM.

`COc1cc(-c2c(C#N)c(N)c(C#N)c3c2COc2ccccc2-3)cc(OC)c1OC` was tested, and the TGI (M14 melanoma) was over 100 µM, the TGI (LOX IMVI melanoma) was over 100 µM and the TGI (MOLT-4 leukemia) was over 100 µM. For the same compound, the TGI (SF-268 CNS) was 34 µM, the TGI (TK-10 renal) was 40.3 µM and the TGI (KM12 colon) was over 100 µM. For the same compound, the TGI (SN12C renal) was over 84.4 µM, the TGI (HOP-92 NSCLC) was 38.6 µM and the TGI (UACC-62 melanoma) was over 100 µM. For the same compound, the TGI (NCI/ADR-RES ovarian) was over 100 µM, the TGI (SK-MEL-5 melanoma) was over 100 µM and the TGI (UACC-257 melanoma) was over 100 µM.

Compound `CS/C(=N\C(=S)Nc1ccccc1)Nc1ccccc1` has a TGI (M14 melanoma) of 96.1 µM, a TGI (LOX IMVI melanoma) of 38.2 µM and a TGI (MOLT-4 leukemia) of 85.7 µM. For the same compound, the TGI (SF-268 CNS) was over 100 µM, the TGI (TK-10 renal) was 54.7 µM and the TGI (KM12 colon) was over 100 µM. For the same compound, the TGI (SN12C renal) was 67.6 µM, the TGI (UACC-62 melanoma) was 53.6 µM and the TGI (SNB-75 CNS) was 84.7 µM. It also gave a TGI (SK-MEL-5 melanoma) of 21.5 µM.

`COc1ccc(C2C(=O)C(Cl)N2Nc2nc(C)cc(=O)[nH]2)cc1OC` (stereo not drawn) was tested, and the TGI (M14 melanoma) was over 100 µM, the TGI (LOX IMVI melanoma) was over 100 µM and the TGI (MOLT-4 leukemia) was over 100 µM. For the same compound, the TGI (SF-268 CNS) was over 100 µM, the TGI (TK-10 renal) was over 100 µM and the TGI (KM12 colon) was over 100 µM. The TGI (SN12C renal) was 94.2 µM, the TGI (HOP-92 NSCLC) was 81.7 µM and the TGI (UACC-62 melanoma) was over 100 µM. It also gave a TGI (SNB-75 CNS) of 52.7 µM, a TGI (SK-MEL-5 melanoma) of over 100 µM and a TGI (UACC-257 melanoma) of over 100 µM.

`FC(F)(F)C(C1=NC(C(F)(F)F)(C(F)(F)F)N=C(N2CCOCC2)O1)C(F)(F)F` gave a TGI (M14 melanoma) of 60.5 µM, a TGI (LOX IMVI melanoma) of 63.8 µM and a TGI (MOLT-4 leukemia) of over 100 µM. The TGI (SF-268 CNS) was over 100 µM, the TGI (TK-10 renal) was 83.6 µM and the TGI (KM12 colon) was over 100 µM. It also gave a TGI (SN12C renal) of 36.1 µM, a TGI (HOP-92 NSCLC) of over 100 µM and a TGI (UACC-62 melanoma) of 33.5 µM. It also gave a TGI (SNB-75 CNS) of over 100 µM, a TGI (NCI/ADR-RES ovarian) of 49.4 µM and a TGI (SK-MEL-5 melanoma) of 28.4 µM. For the same compound, the TGI (UACC-257 melanoma) was 75.3 µM.

For `CCCCCCCCCCCCCCCC[N+](C)(C)CCN(Cc1ccc(OC)cc1)c1ncccn1`, the GI50 (LOX IMVI melanoma) was 1.17 µM, the TGI (LOX IMVI melanoma) was 3.33 µM and the GI50 (SF-268 CNS) was 1.39 µM. It also gave a TGI (SF-268 CNS) of 3.74 µM, a GI50 (UACC-62 melanoma) of 1.75 µM and a TGI (UACC-62 melanoma) of 4.37 µM. For the same compound, the GI50 (SNB-75 CNS) was 2.28 µM, the TGI (SNB-75 CNS) was 6.53 µM and the GI50 (NCI/ADR-RES ovarian) was 18.7 µM and 3.94 µM. The TGI (NCI/ADR-RES ovarian) was 64 µM and > 100 µM, the GI50 (SK-MEL-5 melanoma) was 2.68 µM and the TGI (SK-MEL-5 melanoma) was 8.77 µM. For the same compound, the GI50 (UACC-257 melanoma) was 5.65 µM and the TGI (UACC-257 melanoma) was 39.8 µM.

Work on `COc1ccccc1N1C(Cl)C(=O)C1c1c[nH]c2ccccc12` (stereo not drawn) yielded a TGI (M14 melanoma) of over 100 µM, a TGI (MOLT-4 leukemia) of over 100 µM and a TGI (SF-268 CNS) of over 100 µM. For the same compound, the TGI (TK-10 renal) was over 100 µM, the TGI (KM12 colon) was over 100 µM and the TGI (SN12C renal) was over 100 µM. The TGI (HOP-92 NSCLC) was over 100 µM, the TGI (UACC-62 melanoma) was over 100 µM and the TGI (SNB-75 CNS) was over 100 µM. The TGI (SK-MEL-5 melanoma) was over 100 µM and the TGI (UACC-257 melanoma) was over 100 µM.
